Experimental data published in ChEMBL document CHEMBL3091275, “Oxime-based inhibitors of glucose transporter 1 displaying antiproliferative effects in cancer cells” (Bioorg Med Chem Lett, 2013).
The source made the active and inactive calls. No cut-off for these calls is given here.

Legend:
[1] = Cytotoxicity against human H1299 cells assessed as growth inhibition after 48 hrs by MTT assay; assay type: functional, cell-based; conditions: NCI-H1299, 48 h
[2] = target: T1, Solute carrier family 2, facilitated glucose transporter member 1 (Homo sapiens, UniProt P11166); test: Inhibition of GLUT1 in human H1299 cells assessed as inhibition of 2-deoxy-D-[3H]-glucose uptake incubated for 15 mins prior to 2-deoxy-D-[3H]-glucose addition measured after 30 mins by liquid scintillation counting analysis; assay type: cell-based
T1 sequence (P11166 whole entry): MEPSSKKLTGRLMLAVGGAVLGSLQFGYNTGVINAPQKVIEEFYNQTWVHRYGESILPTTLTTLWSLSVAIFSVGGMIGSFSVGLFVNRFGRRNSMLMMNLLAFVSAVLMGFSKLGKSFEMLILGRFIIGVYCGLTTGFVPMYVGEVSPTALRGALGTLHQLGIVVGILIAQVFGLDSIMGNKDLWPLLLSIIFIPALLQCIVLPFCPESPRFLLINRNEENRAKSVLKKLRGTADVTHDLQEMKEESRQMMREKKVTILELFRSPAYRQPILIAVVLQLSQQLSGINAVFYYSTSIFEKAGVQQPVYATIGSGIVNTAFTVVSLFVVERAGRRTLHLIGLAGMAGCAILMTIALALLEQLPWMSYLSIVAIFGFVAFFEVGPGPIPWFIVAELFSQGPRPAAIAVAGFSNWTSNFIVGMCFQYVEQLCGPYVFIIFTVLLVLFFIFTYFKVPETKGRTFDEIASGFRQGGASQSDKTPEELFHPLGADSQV

[3] = target: T2, Solute carrier family 2, facilitated glucose transporter member 1 (Homo sapiens) (UniProt P11166); test: Inhibition of GLUT1 in human H1299 cells assessed as inhibition of 2-deoxy-D-[3H]-glucose uptake at 30 uM incubated for 15 mins prior to 2-deoxy-D-[3H]-glucose addition measured after 30 mins by liquid scintillation counting analysis; assay type: cell-based
T2 sequence (whole entry): T1 sequence (P11166 whole entry)

NCI-H1299 = test: Cytotoxicity against human H1299 cells assessed as growth inhibition at 30 uM after 48 hrs by MTT assay; assay type: functional, cell-based
Estrogen receptor beta = Estrogen receptor beta (Homo sapiens, UniProt Q92731); test: Displacement of [3H]E2 from full-length human ERbeta after 18 to 24 hrs by radiometric assay
Estrogen receptor = target: T3, Estrogen receptor (Homo sapiens, UniProt P03372); test: Binding affinity to human estrogen receptor assessed as decrease in estradiol-dependent beta-galactosidase activity
T3 sequence (P03372 whole entry): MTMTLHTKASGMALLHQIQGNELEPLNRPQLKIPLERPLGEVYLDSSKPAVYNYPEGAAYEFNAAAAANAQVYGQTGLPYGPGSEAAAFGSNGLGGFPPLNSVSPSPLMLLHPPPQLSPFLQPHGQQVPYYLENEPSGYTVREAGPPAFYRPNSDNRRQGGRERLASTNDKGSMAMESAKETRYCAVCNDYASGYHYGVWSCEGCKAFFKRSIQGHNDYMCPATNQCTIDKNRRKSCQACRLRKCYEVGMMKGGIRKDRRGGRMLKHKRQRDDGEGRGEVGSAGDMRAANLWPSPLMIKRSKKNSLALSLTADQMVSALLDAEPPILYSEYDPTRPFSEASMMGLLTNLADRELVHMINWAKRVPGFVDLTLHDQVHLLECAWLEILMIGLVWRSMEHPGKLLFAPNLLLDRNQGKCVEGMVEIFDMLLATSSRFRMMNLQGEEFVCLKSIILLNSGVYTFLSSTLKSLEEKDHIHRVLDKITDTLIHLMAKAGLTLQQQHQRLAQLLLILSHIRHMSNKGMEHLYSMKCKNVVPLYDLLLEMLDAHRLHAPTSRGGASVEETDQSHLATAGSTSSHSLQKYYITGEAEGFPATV

Estrogen receptor beta, sequence (Q92731 whole entry): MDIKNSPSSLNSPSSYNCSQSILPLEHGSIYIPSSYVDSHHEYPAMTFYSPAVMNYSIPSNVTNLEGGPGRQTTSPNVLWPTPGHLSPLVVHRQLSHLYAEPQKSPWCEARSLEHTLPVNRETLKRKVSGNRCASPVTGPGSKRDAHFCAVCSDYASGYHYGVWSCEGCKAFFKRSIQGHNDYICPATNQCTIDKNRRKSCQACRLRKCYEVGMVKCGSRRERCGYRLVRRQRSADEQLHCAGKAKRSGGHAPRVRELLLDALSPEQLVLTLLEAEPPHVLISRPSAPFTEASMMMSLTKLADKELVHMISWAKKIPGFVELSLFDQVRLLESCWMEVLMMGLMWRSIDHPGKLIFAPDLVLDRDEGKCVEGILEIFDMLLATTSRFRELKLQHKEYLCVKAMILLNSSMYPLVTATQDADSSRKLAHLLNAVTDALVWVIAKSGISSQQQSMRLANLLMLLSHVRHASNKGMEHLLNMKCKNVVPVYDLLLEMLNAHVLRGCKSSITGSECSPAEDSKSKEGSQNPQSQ

Compound | IC50 [1] [µM] | IC50 [2] [µM] | inhibition [3] | further results
COc1ccc(-c2ccc(/C(C)=N/O)c(O)c2Cl)cc1F | 39.6 | 15.5 | – | –
COc1ccc(-c2ccc(/C=N/O)c(O)c2C)cc1 | – | – | Active | –
C/C(=N\O)c1ccc(-c2ccc(O)c(F)c2)c(Cl)c1O | – | – | Active | –
O/N=C/c1cc(-c2ccc(O)c(F)c2)ccc1O | – | – | Active | growth inhibition (GI) (NCI-H1299): Active; Kd (Estrogen receptor beta): 0.051 µM
Cc1c(-c2ccc(O)cc2)ccc(/C=N/O)c1O | – | – | Active | –
O/N=C/c1c(O)ccc(-c2ccc(O)cc2)c1Cl | – | – | Active | –
O/N=C/c1c(O)ccc(-c2ccc(O)c(F)c2)c1Cl | – | – | Active | –
O=C(Oc1cccc(F)c1OC(=O)c1cccc(O)c1)c1cccc(O)c1 | 20.4 | 10.9 | – | –
C/C(=N\O)c1ccc(-c2ccc(O)cc2)c(Cl)c1O | 34.8 | 10.6 | – | –
COc1ccc(-c2ccc(O)c(/C=N/O)c2)cc1F | 14.1 | 8.5 | – | –
N#Cc1c(-c2ccc(O)cc2)ccc(/C=N/O)c1O | – | – | Active | –
O/N=C/c1cc(-c2ccc(O)cc2)ccc1O | – | – | Active | –
COc1ccc(-c2ccc(O)c(/C=N/O)c2)cc1 | 20.4 | 23.4 | – | –
O/N=C/c1c(O)ccc(-c2ccc(O)cc2)c1-c1ccc(O)cc1 | – | – | Active | –
O=C(CCc1ccc(O)cc1)c1c(O)cc(O)cc1O [PHLORETIN] | 54 | 21.4 | – | IC50 (Estrogen receptor): 0.3 µM
